{"source": "ChEMBL document CHEMBL1201862", "about": "“PubChem BioAssay data set” (2004)", "key": {"[1]": {"assay": "inhibitors of EBV LMP1 NF-kappaB signaling – cell-based, luciferase reporter, luminescence, dry powder, set 2, dose response (AID 624376)", "format": "functional"}, "[2]": {"molecular_target": "Tyrosine-protein phosphatase non-receptor type 11 (Homo sapiens, UniProt Q06124)", "sequence (Q06124 whole entry)": "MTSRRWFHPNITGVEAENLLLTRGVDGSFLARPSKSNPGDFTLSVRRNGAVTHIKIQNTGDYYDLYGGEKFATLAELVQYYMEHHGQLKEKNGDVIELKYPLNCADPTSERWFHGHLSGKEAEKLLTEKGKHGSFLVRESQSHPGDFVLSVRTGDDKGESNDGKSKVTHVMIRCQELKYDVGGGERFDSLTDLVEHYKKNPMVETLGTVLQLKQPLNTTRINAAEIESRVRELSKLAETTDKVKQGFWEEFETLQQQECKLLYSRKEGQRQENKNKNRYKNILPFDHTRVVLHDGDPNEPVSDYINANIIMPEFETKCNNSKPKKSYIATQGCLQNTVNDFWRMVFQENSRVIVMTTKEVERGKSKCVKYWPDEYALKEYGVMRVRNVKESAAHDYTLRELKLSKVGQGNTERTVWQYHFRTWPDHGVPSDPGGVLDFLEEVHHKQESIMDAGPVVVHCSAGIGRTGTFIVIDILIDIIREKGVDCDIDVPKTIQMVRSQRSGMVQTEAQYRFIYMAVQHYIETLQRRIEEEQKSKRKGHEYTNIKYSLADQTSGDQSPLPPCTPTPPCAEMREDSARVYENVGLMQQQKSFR", "assay": "PTPN11 enzyme inhibitors – biochemical, selectivity assay for STEP inhibitor project, dose response (AID 602367)", "format": "functional", "conditions": "read-out: IC50_Mean"}, "[3]": {"molecular_target": "Tyrosine-protein phosphatase non-receptor type 5 (Homo sapiens, UniProt P54829)", "sequence (P54829 whole entry)": "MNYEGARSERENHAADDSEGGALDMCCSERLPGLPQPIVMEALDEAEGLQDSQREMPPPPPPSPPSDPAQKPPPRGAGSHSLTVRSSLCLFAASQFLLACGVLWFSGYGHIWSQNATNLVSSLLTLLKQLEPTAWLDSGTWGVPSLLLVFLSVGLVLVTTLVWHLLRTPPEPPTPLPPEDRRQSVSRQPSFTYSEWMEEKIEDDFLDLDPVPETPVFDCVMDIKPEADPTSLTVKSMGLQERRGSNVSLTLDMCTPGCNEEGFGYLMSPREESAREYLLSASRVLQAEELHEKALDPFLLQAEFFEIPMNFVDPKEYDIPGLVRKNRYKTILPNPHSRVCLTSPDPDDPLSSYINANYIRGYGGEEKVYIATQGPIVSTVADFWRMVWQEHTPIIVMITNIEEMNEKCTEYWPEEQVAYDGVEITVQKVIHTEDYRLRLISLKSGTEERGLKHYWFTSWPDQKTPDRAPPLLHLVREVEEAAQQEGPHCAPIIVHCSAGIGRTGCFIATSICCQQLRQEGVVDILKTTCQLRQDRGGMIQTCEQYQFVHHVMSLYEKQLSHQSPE", "assay": "PTPN5 enzyme inhibition – biochemical, fluorescence intensity, uHTS hits, confirmation (AID 602372)", "format": "functional", "conditions": "read-out: IC50_Mean"}, "[4]": {"molecular_target": "Dual specificity protein phosphatase 3 (Homo sapiens, UniProt P51452)", "sequence (P51452 whole entry)": "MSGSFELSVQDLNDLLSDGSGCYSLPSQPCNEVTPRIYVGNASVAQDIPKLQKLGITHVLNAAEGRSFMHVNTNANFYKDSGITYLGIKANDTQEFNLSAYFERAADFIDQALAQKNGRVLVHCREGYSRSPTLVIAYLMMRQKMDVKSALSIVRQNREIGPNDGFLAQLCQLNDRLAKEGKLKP", "assay": "VHR phosphatase inhibition, dose response, selectivity assay for STEP inhibitor project, biochemical (AID 602374)", "format": "functional", "conditions": "read-out: IC50_Mean"}, "cells [5]": {"assay": "cells", "format": "functional, cell-based"}, "[6]": {"molecular_target": "T1, Trace amine-associated receptor 1 (Homo sapiens, UniProt Q96RJ0)", "T1 sequence (Q96RJ0 whole entry)": "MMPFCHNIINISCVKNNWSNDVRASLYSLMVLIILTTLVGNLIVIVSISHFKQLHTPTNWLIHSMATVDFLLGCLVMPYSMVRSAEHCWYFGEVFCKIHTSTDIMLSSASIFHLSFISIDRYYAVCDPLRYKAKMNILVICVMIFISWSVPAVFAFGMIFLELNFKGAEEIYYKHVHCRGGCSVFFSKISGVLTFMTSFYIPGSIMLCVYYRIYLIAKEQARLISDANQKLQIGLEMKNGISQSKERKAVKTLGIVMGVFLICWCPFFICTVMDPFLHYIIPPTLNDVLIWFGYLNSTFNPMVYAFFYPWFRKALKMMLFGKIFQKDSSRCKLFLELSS", "assay": "Fluorescence-based cell-based high throughput dose response assay to identify agonists of the human trace amine associated receptor 1 (TAAR1).", "format": "functional"}, "[7]": {"molecular_target": "T1, Trace amine-associated receptor 1", "assay": "Counterscreen for agonists of the human trace amine associated receptor 1 (hTAAR1): Fluorescence-based cell-based high throughput dose response assay to identify hTAAR1 agonist that also desensitize TAAR1 receptor response.", "format": "functional"}, "cells [8]": {"assay": "cells", "format": "functional, cell-based", "remark": "listed apart in the source"}, "Beta-lactamase [9]": {"molecular_target": "Beta-lactamase (Pseudomonas aeruginosa, UniProt Q79MP6)", "sequence (Q79MP6 whole entry)": "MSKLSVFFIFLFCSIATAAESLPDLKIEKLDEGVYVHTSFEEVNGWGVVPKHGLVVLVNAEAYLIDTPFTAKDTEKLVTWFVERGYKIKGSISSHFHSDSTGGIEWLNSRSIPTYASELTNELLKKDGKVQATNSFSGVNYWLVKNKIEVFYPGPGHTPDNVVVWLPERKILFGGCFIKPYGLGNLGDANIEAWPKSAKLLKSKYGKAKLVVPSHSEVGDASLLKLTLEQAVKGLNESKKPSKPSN"}, "Beta-lactamase [10]": {"molecular_target": "Beta-lactamase (Salmonella choleraesuis (strain SC-B67), UniProt Q5J463)", "sequence (Q5J463 whole entry)": "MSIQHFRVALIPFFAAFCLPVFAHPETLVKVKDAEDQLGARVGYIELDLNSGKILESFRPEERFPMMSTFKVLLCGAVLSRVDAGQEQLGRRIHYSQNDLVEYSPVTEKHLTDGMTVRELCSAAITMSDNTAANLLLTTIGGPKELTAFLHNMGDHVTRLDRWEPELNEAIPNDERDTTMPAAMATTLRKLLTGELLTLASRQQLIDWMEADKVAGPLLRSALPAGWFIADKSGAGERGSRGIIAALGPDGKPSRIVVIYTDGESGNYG"}, "[11]": {"assay": "blockers of HIV-1 envelope-mediated cell-cell fusion – cherry-pick, dose response (AID 652057)", "format": "functional, cell-based"}, "[12]": {"assay": "viability loss in CEM21 cells – cell-based, CellTiter-Glo luminescence, cherry-picked, cytotoxicity control for viral fusion inhibitor project, dose response (AID 652042);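 further: potency for signal decrease meaning cytotoxicity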", "format": "functional"}, "[13]": {"assay": "blockers of HIV-1 ZM109 envelope-driven cell-cell fusion – HeLa effector, CEM target cells, luciferase, cherry-pick, dose response (AID 652058)", "format": "functional, cell-based"}, "[14]": {"assay": "off-target signal loss in HeLa-CEM21 co-culture – HeLa F-luc CTL cells, cherry-picked, counter-screen for HIV-1 Env fusion inhibitor project, dose response (AID 652040);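 further: potency for signal decrease marking cytotoxic or nonspecific inhibition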", "format": "functional, cell-based"}, "[15]": {"assay": "HIV-1 AD8 envelope cell-cell fusion blockers – cherry-pick, dose response (AID 652062);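 further: potency is for inhibitors of fusion seen as a drop in luminescence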", "format": "functional, cell-based"}, "[16]": {"molecular_target": "T2, Sentrin-specific protease 8 (Homo sapiens, UniProt Q96LD8)", "T2 sequence (Q96LD8 whole entry)": "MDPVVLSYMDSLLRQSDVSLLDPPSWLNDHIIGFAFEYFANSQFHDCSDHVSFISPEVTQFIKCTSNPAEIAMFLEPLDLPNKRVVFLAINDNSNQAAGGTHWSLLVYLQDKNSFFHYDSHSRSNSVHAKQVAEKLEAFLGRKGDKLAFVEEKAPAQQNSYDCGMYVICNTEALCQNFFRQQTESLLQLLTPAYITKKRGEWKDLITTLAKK", "format": "functional"}, "[17]": {"molecular_target": "T2, Sentrin-specific protease 8", "format": "functional", "remark": "listed apart in the source"}}, "note": "The source made the active and inactive calls."}
{"smiles": "COc1ccc(S(=O)(=O)N(C)C[C@H]2Oc3ncc(/C=C/c4ccccc4)cc3C(=O)N([C@H](C)CO)C[C@@H]2C)cc1", "values": [{"measurement": "AbsAC35", "setting": "[1]", "value": 45.64, "unit": "µM"}]}
{"smiles": "NS(=O)(=O)c1ccc(N/C(S)=N\\CCc2ccccc2)cc1", "values": [{"measurement": "IC50", "setting": "[2]", "value": "5.84 µM (active)"}, {"measurement": "IC50", "setting": "[3]", "value": "> 80 µM (inactive)"}, {"measurement": "IC50", "setting": "[4]", "value": "3.17 µM (active)"}, {"measurement": "IC50", "setting": "cells [5]", "value": "> 29.9 µM (inactive)"}, {"measurement": "EC50", "setting": "[6]", "value": "2.56 µM (active)"}, {"measurement": "IC50", "setting": "[7]", "value": "7.06 µM (active)"}, {"measurement": "EC50", "setting": "cells [8]", "value": "> 29.9 µM (inactive)"}]}
{"smiles": "CC(=O)Nc1ccc(N2C(=O)c3cccc4c(O)ccc(c34)C2=O)cc1", "values": [{"measurement": "IC50", "setting": "Beta-lactamase [9]", "value": "13.7 µM (inactive)"}, {"measurement": "IC50", "setting": "Beta-lactamase [10]", "value": "7 µM (active)"}]}
{"smiles": "C[C@H]1CNC(=O)c2c(C(=O)N3CCN(C(=O)OC(C)(C)C)CC3)ncn21", "values": [{"measurement": "AC50", "setting": "[11]", "value": "0.805 µM (active)"}, {"measurement": "AC50", "setting": "[12]", "value": "47.9 µM (active)"}, {"measurement": "AC50", "setting": "[13]", "value": "3.02 µM (active)"}, {"measurement": "AC50", "setting": "[14]", "value": "2.18 µM (active)"}, {"measurement": "AC50", "setting": "[15]", "value": "4.38 µM (active)"}]}
{"smiles": "O=C(COC(=O)c1ccc([N+](=O)[O-])o1)NCc1ccc2c(c1)OCO2", "values": [{"measurement": "IC50", "setting": "[16]", "value": "5.11 µM (active)"}, {"measurement": "IC50", "setting": "[17]", "value": "11.1 µM (active)"}]}
